These results are taken from patent US8642622B2, “Piperidinyl compound as a modulator of chemokine receptor activity” (Bristol-Myers Squibb Company, priority 2010, dated 2014).

One data set can be described thus: Protein binding, human. In kind it is in vitro ADME.
The target of a further data set is T1, CCR1 (Homo sapiens, UniProt P32246).
T1 construct: THP-1 monocytic leukemia cells are combined with 100 μg of LS WGA PS beads; endogenous in cells; host or cells: THP-1 monocytic leukemia cells
T1 sequence (P32246 1-355): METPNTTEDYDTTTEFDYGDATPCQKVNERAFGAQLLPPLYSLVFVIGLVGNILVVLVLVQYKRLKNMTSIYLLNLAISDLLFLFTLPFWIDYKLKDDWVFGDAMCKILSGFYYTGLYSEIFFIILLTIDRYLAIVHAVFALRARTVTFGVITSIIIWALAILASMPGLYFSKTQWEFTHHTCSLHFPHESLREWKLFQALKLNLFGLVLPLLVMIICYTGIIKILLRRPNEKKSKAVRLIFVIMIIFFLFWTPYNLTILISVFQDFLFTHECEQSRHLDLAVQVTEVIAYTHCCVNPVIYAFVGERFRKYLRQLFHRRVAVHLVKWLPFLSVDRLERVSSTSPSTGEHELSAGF
Nature of the data set: Human CCR1 THP-1 binding assay ([125I]MIP-1α competition). The settings on record: THP-1 cells. Here is the method:
For radioligand competition studies, a final concentration of 1×10^5 THP-1 monocytic leukemia cells are combined with 100 μg of LS WGA PS beads (Amersham, Cat.#: RPNQ 0260) in 40 μL of assay buffer (RPMI 1640 without phenol red, 50 mM HEPES, 5 mM MgCl2, 1 mM CaCl2, 0.1% BSA). The THP-1 cell/bead mixture was added to each well of a 384-well assay plate (PerkinElmer, Cat. #:6007899) containing test compound in 3-fold serial dilution, with final concentrations ranging from 8 μM to 0.14 nM. A final concentration of 0.1 nM [^125I]MIP-1α (PerkinElmer, Cat. # NEX298) in 20 μL assay buffer was added to the reaction. Unlabeled MIP-1α was added in excess to some wells to determine non-specific binding. Sealed assay plates were incubated at room temperature for 12 h then analyzed by LEADseeker™.
The competition data of the test compound over a range of concentrations is plotted as percentage inhibition of radioligand specifically bound in the absence of test compound (percent of total signal). After correcting for non-specific binding, IC50 values are determined. […] The Ki values are determined by application of the Cheng-Prusoff equation to the IC50 values, where Ki=IC50/(1+ligand concentration/Kd). […]

Data set [1] can be described thus: Human liver microsomal metabolism, Assay Conditions B. In kind it is in vitro ADME. As to the method: Test compound is received as 20 mM in DMSO. Compound is diluted to create a 300 μM acetonitrile (ACN) solution containing 1.5% DMSO, which is then used as a 100× stock for incubation with microsomes. Each compound is tested in duplicate separately in each of three species in the Metabolic Stability-Human, Rat, Mouse assay suite or individual species in the Metabolic Stability-Dog or Metabolic Stability-Monkey suites. Compound, NADPH and liver microsome solutions are combined for incubation in three steps: • 1. 450 μL of liver microsome suspension, protein concentration of 1 mg/mL in 100 mM NaPi, pH 7.4, 6.6 mM MgCl2 buffer, are pre-warmed at 37° C. • 2. […] of 300 μM compound (98.5% CAN, 1.5% DMSO) is added to the same tube. • 3. The reaction is initiated by the addition of 50 μL of pre-warmed 5 mM NADPH solution in 100 mM NaPi, pH 7.4.
Reaction components are mixed well and 150 μL removed to quench/stop solution immediately for the zero-minute time point. Reactions are incubated at 37° C. for 10 minutes and then an additional 150 μL removed from incubation. Aliquots removed are combined with 300 μL ACN which contains 100 μM DMN as a UV standard for detection.
Quenched mixtures are centrifuged at 1500 rpm (˜500×g) in an Allegra X-12 centrifuge, SX4750 rotor (Beckman Coulter Inc., Fullerton, Calif.) for fifteen minutes to pellet denatured microsomes. A volume of 110 μl of supernatant extract, containing the mixture of parent compound and its metabolites, is then transferred to a separate 96-well plate for UV-LC/MS-MS analysis to determine the percent of parent compound that is remaining in the mixture.
On the technique in general: Liver microsomes are vesicles of endoplasmic reticulum, rich in cytochrome P450 enzymes.

The next data set in a line: Protein binding, rabbit. In kind it is in vitro ADME.
The target of data set [2] is T2, human cardiac L-type Ca channel (α1C) and its β subunit (Homo sapiens, UniProt Q13936).
T2 construct: expressed in transfected cells
Nature of the data set: L-type calcium channel whole-cell patch-clamp assay. The settings on record: @ 30 μM, HEK-293, protein-free buffer. In kind it is cell-based. Here is the method:
In addition to the potential for interaction with the L-type calcium channel, whole-cell patch-clamp was used to directly measure inward calcium currents in HEK-293 cells stably expressing the cloned human cardiac L-type Ca channel (α1C) and its β subunit. Effects of compounds were calculated by measuring inhibition of peak current. Experiments were carried out using an aqueous buffer at pH 7.4 and at room temperature. There is no protein in the buffer and drug concentrations reported are nominal free drug levels. Data is reported as percent inhibition at a fixed concentration.
A general note: Patch clamp records ionic current or voltage across a cell membrane.

The structures appear in SMILES notation.

T2 sequence (Q13936 whole entry): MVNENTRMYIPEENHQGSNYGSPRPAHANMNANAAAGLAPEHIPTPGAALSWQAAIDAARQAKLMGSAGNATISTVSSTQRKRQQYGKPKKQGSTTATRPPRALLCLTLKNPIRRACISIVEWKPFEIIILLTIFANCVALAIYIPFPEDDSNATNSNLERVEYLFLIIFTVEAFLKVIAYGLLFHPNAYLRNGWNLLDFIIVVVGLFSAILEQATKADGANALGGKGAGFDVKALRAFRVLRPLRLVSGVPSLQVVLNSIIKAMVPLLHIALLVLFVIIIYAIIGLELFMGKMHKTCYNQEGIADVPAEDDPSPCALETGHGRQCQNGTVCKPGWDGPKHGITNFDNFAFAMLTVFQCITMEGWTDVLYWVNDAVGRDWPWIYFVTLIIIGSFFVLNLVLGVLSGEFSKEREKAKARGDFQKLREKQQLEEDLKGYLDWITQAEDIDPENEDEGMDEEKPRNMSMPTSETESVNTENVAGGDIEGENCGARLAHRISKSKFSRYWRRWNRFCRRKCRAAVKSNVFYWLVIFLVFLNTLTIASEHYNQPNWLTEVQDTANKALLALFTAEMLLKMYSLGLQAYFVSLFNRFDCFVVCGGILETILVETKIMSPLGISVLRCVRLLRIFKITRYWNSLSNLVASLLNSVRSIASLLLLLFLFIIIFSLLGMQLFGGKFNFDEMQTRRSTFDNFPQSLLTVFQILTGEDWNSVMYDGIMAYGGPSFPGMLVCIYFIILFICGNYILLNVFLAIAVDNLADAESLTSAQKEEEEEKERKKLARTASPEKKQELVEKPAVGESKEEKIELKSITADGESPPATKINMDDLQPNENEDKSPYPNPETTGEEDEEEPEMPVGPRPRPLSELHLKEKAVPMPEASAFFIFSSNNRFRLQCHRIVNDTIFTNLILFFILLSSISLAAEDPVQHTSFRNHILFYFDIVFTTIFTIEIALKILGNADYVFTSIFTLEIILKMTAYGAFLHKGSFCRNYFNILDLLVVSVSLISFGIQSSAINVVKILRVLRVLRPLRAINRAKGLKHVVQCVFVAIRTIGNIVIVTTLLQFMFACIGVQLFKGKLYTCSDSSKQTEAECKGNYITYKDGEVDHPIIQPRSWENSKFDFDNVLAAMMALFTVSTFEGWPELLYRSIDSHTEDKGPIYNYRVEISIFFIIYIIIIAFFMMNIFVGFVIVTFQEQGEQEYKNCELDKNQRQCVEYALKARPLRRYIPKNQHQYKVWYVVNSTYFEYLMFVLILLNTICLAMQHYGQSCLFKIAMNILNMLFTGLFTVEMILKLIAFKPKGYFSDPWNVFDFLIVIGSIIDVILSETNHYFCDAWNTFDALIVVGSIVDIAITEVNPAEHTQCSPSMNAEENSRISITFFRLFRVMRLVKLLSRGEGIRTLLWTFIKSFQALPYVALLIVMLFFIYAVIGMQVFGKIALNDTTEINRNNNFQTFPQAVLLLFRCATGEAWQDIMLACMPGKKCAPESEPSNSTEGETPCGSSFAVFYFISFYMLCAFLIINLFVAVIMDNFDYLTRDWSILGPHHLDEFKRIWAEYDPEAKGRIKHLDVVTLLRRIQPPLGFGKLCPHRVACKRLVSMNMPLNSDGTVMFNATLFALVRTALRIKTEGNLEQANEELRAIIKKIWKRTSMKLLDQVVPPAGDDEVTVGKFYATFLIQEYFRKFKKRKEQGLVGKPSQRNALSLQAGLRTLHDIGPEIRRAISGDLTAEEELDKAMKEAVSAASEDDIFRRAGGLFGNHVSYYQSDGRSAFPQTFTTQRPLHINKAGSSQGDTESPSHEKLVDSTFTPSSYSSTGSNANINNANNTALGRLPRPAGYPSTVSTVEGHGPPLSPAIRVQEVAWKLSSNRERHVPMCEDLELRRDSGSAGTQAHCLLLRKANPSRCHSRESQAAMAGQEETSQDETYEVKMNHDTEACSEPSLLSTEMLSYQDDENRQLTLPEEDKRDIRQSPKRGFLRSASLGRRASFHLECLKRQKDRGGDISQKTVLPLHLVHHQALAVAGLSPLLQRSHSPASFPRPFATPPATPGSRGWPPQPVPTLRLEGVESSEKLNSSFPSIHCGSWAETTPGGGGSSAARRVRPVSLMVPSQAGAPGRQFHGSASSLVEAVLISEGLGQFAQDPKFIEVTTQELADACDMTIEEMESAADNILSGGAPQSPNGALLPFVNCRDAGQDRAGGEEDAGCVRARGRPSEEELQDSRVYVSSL
T2 sequence (Q08289 whole entry partner): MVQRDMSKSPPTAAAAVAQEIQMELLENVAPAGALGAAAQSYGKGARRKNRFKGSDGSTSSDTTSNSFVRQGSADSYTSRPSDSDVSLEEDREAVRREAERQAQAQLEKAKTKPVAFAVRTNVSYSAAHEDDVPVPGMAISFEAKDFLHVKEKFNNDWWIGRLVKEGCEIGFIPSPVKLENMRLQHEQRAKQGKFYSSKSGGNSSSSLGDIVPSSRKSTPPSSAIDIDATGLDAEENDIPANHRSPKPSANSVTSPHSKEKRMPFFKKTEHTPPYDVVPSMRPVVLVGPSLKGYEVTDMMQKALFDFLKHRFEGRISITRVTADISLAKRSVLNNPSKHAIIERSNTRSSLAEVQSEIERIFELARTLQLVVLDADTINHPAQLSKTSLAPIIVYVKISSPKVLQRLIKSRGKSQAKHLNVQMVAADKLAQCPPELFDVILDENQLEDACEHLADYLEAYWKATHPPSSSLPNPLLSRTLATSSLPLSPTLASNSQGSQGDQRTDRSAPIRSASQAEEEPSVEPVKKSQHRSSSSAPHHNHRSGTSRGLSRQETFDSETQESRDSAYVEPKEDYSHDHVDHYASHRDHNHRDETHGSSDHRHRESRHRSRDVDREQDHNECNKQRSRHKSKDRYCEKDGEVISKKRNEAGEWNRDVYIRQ

`CC(C)[C@@H](NC(=O)[C@@H]1CCC(F)(F)C1)C(=O)N1CC[C@](O)(c2ccc(Cl)cc2)[C@@](C)(O)C1` [Compound I, (R)—N—((R)-1-((3S,4S)-4-(4-chlorophenyl)-3,4-dihydroxy-3-methylpiperidin-1-yl)-3-methyl-1-oxobutan-2-yl)-3,3-difluorocyclopentanecarboxamide]: the fraction unbound in the data set “Protein binding, human” was 0.32; in the data set “Protein binding, rabbit”, 0.46. Moreover, on CCR1, affinity was put at a Ki of 1.6 nM. Also, in data set [1] (3 μM compound, 10 minutes, 37° C.), the “Human Liver Microsomal Metabolism % remaining (Assay Conditions B)” value was 96% (B). Also, the “% of compound remaining in the human liver microsome metabolism assay” value in data set [1] (assay conditions not given) came out at 100%. The “Ca channel, % inh” value in data set [2] turned out to be 29% @ 30 μM.
The molecule `CC(C)COC(=O)N[C@@H](C(=O)N1CC[C@](O)(c2ccc(Cl)cc2)C(C)(C)C1)C(C)C` [Example 1083] yielded a Ki on CCR1 of 2.6 nM. That is a single-digit nanomolar value.

As a reminder, the fraction unbound is the share of the substance not bound to proteins or other matrix. Usually Ki stands for a measure of affinity in units of concentration, obtained from inhibition or displacement.
